# Experimental data: article PMC8639922, “KSHV transactivator-derived small peptide traps coactivators to attenuate MYC and inhibits leukemia and lymphoma cell growth” (Communications Biology, 2021)
# Tested on: BC-1 cells
# Experiment: MTT assay, deletion and mutant peptides
# Format: cell-based, human
# Excerpt: Fig. 2 Viral and cellular responses to K-Rta peptide; identification of VGN50. a Protein sequence alignment. Homologous protein sequences were searched for with BLAST and extracted from other gamma-herpesviral homologs. The consensus protein sequence is depicted at the bottom of table. b Peptide design. Deletion peptides were designed based on the consensus sequence in a. The TAT protein sequence was used as a cell-penetrating peptide (CPP) and placed downstream from the K-Rta protein sequence. (d-R) D amino acid arginine, (ORN) ornithine, (bAla) beta alanine. c Sub cellular peptide localization. Cy5-labeled peptide 1 was used to track subcellular localization. Nuclei were visualized by DAPI staining. The scale is indicated in the panel. d MTT assays with deletion and mutant peptides. Peptide listed in b were incubated with BC-1 cells and MTT conversion was measured 48 h after incubation. The OD of mock-treated samples were set as 100%, and OD from detergent-treated cells were set as 0%. The amount of each peptide used for incubation is depicted along the x-axis. Mean percentage viability ±SD were calculated for each treatment group (n = 3 samples). Peptide 1 was renamed as VGN50. e Flow cytometry analyses of cell proliferation and apoptosis induction. Cells were incubated with VGN50 or mutant peptide (three alanine substitutions) for 24 h followed by measurements of percentage cell proliferation (Ki67 staining) and apoptosis induction (Annexin V staining). Standard deviation bars are included. (n = 3) Two-way Anova, followed by Sidak’s multiple comparisons test. f The effect of VGN50 on various cancer cell types. MTT assays were performed with the indicated cell lines treated with various VGN50 concentrations. The OD of mock-treated samples were set as 100%, and OD from detergent-treated cells were set as 0%. Mean percentage viability ±SD was calculated for each treatment (n = 3 samples/treatment). g Viability assay with flow cytometry. Cell viability was measured in triplicate with live/dead staining and the cell killing effects on cancer cells was compared with normal peripheral blood mononuclear cells (PBMC) from three healthy donors. Results are presented as mean percentage viability ±SD (n = 3 samples/group). f, g Ordinary one-way Anova, followed by Tukey’s multiple comparisons test. […]
# Leukoreduction system chambers (LRS) from healthy donors were purchased from Vitalant. […] Cell death, apoptosis, and proliferation were analyzed by flow cytometry (BD Acuri) after intracellular staining with anti-humanKi67-Alexa488 (Biolegend, 1:100) along with the isotype control antibody, annexin-V-FITC with 7-AAD staining (Biolegend) according to the manufacture’s protocol, Live/dead Fixable Red Dead Cell staining kit (Invitrogen) according to the manufacture’s protocol, or MTT assay. […]
structure (smiles),measurement,setting,value
CC[C@H](C)[C@H](NC(=O)[C@H](CO)NC(=O)[C@H](CO)NC(=O)CCNC(=O)[C@H](CCCNC(=N)N)NC(=O)[C@H](CCCNC(=N)N)NC(=O)[C@H](CCCNC(=N)N)NC(=O)[C@H](CCCN)NC(=O)[C@H](CCCNC(=N)N)NC(=O)[C@H](CCCNC(=N)N)NC(=O)[C@H](CCCCN)NC(=O)[C@H](CCCCN)NC(=O)[C@H](N)CCCNC(=N)N)C(=O)N[C@@H](CC(C)C)C(=O)N[C@@H](CCC(N)=O)C(=O)NCC(=O)N[C@@H](CC(C)C)C(=O)N[C@@H](Cc1ccc(O)cc1)C(=O)N[C@@H](CCC(N)=O)C(=O)N[C@@H](CC(C)C)C(=O)N[C@@H](CC(=O)O)C(=O)N[C@H](C(=O)O)[C@@H](C)O [Pep 2],Reduction of cell viability (MTT) compared to untreated control,"BC-1, 64 μM",20%
CC[C@H](C)[C@H](NC(=O)[C@H](CO)NC(=O)[C@H](CO)NC(=O)[C@H](CC(C)C)NC(=O)[C@H](CC(C)C)NC(=O)[C@H](C)NC(=O)[C@H](CC(=O)O)NC(=O)CCNC(=O)[C@H](CCCNC(=N)N)NC(=O)[C@H](CCCNC(=N)N)NC(=O)[C@H](CCCNC(=N)N)NC(=O)[C@H](CCCN)NC(=O)[C@H](CCCNC(=N)N)NC(=O)[C@H](CCCNC(=N)N)NC(=O)[C@H](CCCCN)NC(=O)[C@H](CCCCN)NC(=O)[C@H](N)CCCNC(=N)N)C(=O)N[C@@H](CC(C)C)C(=O)N[C@@H](CCC(N)=O)C(=O)NCC(=O)N[C@@H](CC(C)C)C(=O)N[C@@H](Cc1ccc(O)cc1)C(=O)N[C@@H](CCC(N)=O)C(=O)N[C@@H](CC(C)C)C(=O)N[C@@H](CC(=O)O)C(=O)N[C@H](C(=O)O)[C@@H](C)O [Pep 3],Reduction of cell viability (MTT) compared to untreated control,"BC-1, 16 µM",90%
CC[C@H](C)[C@H](NC(=O)[C@H](CO)NC(=O)[C@H](CO)NC(=O)[C@H](CC(C)C)NC(=O)[C@H](CC(C)C)NC(=O)[C@H](C)NC(=O)[C@H](CC(=O)O)NC(=O)[C@H](CC(=O)O)NC(=O)CCNC(=O)[C@H](CCCNC(=N)N)NC(=O)[C@H](CCCNC(=N)N)NC(=O)[C@H](CCCNC(=N)N)NC(=O)[C@H](CCCN)NC(=O)[C@H](CCCNC(=N)N)NC(=O)[C@H](CCCNC(=N)N)NC(=O)[C@H](CCCCN)NC(=O)[C@H](CCCCN)NC(=O)[C@H](N)CCCNC(=N)N)C(=O)N[C@@H](CC(C)C)C(=O)N[C@@H](CCC(N)=O)C(=O)NCC(=O)N[C@@H](CC(C)C)C(=O)N[C@@H](Cc1ccc(O)cc1)C(=O)O [Pep 4],Fold less effective compared to Pep 1 and 3 (MTT),BC-1,~ 4 fold
